From US10246483B2, “Bile acid analogs as FXR/TGR5 agonists and methods of use thereof” (ENANTA PHARMACEUTICALS, INC., priority 2015, dated 2019)

Molecular target: T1, human FXR (NR1H4) (Homo sapiens, UniProt Q96RI1)
T1 construct: host or cells: CHO (Chinese hamster ovary) reporter cells
T1 sequence (Q96RI1 1-486): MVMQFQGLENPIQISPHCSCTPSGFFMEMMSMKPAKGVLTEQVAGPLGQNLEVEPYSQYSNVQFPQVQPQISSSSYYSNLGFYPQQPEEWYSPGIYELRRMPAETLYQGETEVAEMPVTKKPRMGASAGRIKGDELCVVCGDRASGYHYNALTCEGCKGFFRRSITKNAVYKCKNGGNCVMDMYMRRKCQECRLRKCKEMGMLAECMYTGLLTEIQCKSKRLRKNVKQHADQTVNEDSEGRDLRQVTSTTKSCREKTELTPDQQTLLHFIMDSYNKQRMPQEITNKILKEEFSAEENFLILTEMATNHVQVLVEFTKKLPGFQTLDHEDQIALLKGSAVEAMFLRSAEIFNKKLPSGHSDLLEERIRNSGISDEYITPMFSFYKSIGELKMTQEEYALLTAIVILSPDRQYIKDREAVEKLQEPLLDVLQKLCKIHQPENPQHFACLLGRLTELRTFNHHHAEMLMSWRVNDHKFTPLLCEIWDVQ
Experiment: Human FXR (NR1H4) reporter assay (Gal4 promoter driven transactivation, luciferase)
Format: cell-based
From the text: Human FXR (NR1H4) Assay Determination of a ligand mediated Gal4 promoter driven transactivation to quantify ligand binding mediated activation of FXR. FXR Reporter Assay kit purchased from Indigo Bioscience (Catalogue number: IB00601) to determine the potency and efficacy of compound developed by Enanta that can induce FXR activation. The principle application of this reporter assay system is to quantify functional activity of human FXR. The assay utilizes non-human mammalian cells, CHO (Chinese hamster ovary) cells engineered to express human NR1H4 protein (referred to as FXR). Reporter cells also incorporate the cDNA encoding beetle luciferase which catalyzes the substrates and yields photon emission. Luminescence intensity of the reaction is quantified using a plate-reading luminometer, Envision. […] Thus, quantifying changes in luciferase expression in the treated reporter cells provides a sensitive surrogate measure of the changes in FXR activity. […] Thirty minutes before intending to quantify FXR activity, remove Detection Substrate and Detection Buffer from the refrigerator and place them in a low-light area so that they may equilibrate to room temperature. […] Set the instrument (Envision) to perform a single 5 second “plate shake” prior to reading the first assay well. Read time may be 0.5 second (500 mSec) per well.

## CC[C@@H]1C2C[C@H](O)CCC2(C)[C@H]2CCC3(C)C([C@H](C)CCC(=O)NC(=N)Nc4ccccc4)CC[C@H]3[C@@H]2[C@@H]1O (some centres unmarked) [Example 1]
  EC50: 100 to 1000 nM
CHO reporter cells expressing human NR1H4, normalized to CDCA set as 100%
  Efficacy (%): 248%
